Experimental data taken from patent publication US20020068057A1, “TREATMENT OF AUTOIMMUNE AND INFLAMMATORY DISORDERS” (priority 1996, published 2002).

Assays:
[1] = test system: collagen type II induced arthritis; assay: Collagen-induced arthritis, Example 2B: limb involvement; type: in vivo, mouse; conditions: 2 mg/kg body weight i.p.
Description: (§1) Male DBA/1 mice were immunized intradermally with 100 μg of bovine type II collagen emulsified in complete Freund's adjuvant (Difco Laboratories, East Molsey, UK). The mean day of onset of arthritis was approximately one month after immunization. After the onset of clinically evident arthritis (erythema and/or swelling), mice were injected intraperitoneally with therapeutic agents. Arthritis was monitored for clinical score and paw swelling (measured with calipers) for 10 days, after which the mice were sacrificed and joints were processed for histology. Sera were collected for analysis on day 10. Therapeutic agents were administered on day 1 (onset), day 4 and day 7. The therapeutic agents included TNF receptor/IgG fusion protein (p55-sf2), anti-TNF antibody, anti-CD4 antibody, and methylprednisolone acetate.
Using the Experimental Procedure described above, groups of mice were subjected to treatment with TNF receptor/IgG protein (2 μg) (18 mice), TNF receptor/IgG protein (20 μg) (18 mice), TNF receptor/IgG protein (100 μg) (12 mice), anti-TNF monoclonal antibody (mAb) (300 μg) (17 mice), methylprednisolone acetate (6 mice), an irrelevant human IgG1 monoclonal antibody (mAb) (6 mice), or saline (control). The TNF receptor/IgG fusion protein, herein referred to as p55-sf2, (Butler et al., Cytokine (in press): (1994), was provided by Centocor, Inc., Malvern Pa.; it is dimeric and consists of the human p55 TNF receptor (extracellular domains) fused to a partial J sequence followed by the whole of the constant region of the hunan IgG1 heavy chain, itself associated with the constant region of a kappa light chain. The […] antibody was TN3-19.12, a neutralizing hamster IgG1 anti-TNFα/β monoclonal antibody (Sheehan, K. C. et al., J. Immunology 142:3884-3893 (1989)), and was provided by R. Schreiber, Washington University Medical School (St. Louis, Mo., USA), in conjunction with Celltech (Slough, UK). […]

[2] = test system: collagen type II induced arthritis; assay: Collagen-induced arthritis, Example 2B: histology of PIP joints; type: in vivo, mouse; conditions: 2 mg/kg body weight i.p.
Description: as §1
Using the Experimental Procedure described above, groups of mice were subjected to treatment with TNF receptor/IgG protein (2 μg) (18 mice), TNF receptor/IgG protein (20 μg) (18 mice), TNF receptor/IgG protein (100 μg) (12 mice), anti-TNF monoclonal antibody (mAb) (300 μg) (17 mice), methylprednisolone acetate (6 mice), an irrelevant human IgG1 monoclonal antibody (mAb) (6 mice), or saline (control). […]

CC(=O)OCC(=O)[C@@]1(O)CC[C@H]2[C@@H]3C[C@H](C)C4=CC(=O)C=C[C@]4(C)[C@H]3[C@@H](O)C[C@@]21C [Methylprednisolone acetate, methylprednisolone acetate]
Increase (%) in limbs affected [1]: 33% | Limbs Affected (mean ± SEM) Day 1 ([1]; Day 1): 1.00 ± 0.00 | Limbs Affected (mean ± SEM) Day 10 ([1]; Day 10): 1.50 ± 0.22 | PIP Joints with Erosions (%) [2]: (67%) | PIP Joints with Erosions (number/total) [2]: 4/6
